The target of one experiment is Mu-type opioid receptor (Rattus norvegicus, UniProt P33535). Nature of the experiment: Displacement of [3H]DAMGO from MOR in Wistar rat brain membranes by liquid scintillation counting method. It counts as cell membranes, Membrane.
The target of experiment [1] is Delta-type opioid receptor (Rattus norvegicus, UniProt P33533). Nature of the experiment: Displacement of [3H][Ile5,6]deltorphin-2 from DOR in Wistar rat brain membranes by liquid scintillation counting method. It counts as cell membranes, Membrane. Background: In a radioligand displacement assay an active substance lowers the binding of a labelled ligand.
Chain of Delta-type opioid receptor (P33533 whole entry): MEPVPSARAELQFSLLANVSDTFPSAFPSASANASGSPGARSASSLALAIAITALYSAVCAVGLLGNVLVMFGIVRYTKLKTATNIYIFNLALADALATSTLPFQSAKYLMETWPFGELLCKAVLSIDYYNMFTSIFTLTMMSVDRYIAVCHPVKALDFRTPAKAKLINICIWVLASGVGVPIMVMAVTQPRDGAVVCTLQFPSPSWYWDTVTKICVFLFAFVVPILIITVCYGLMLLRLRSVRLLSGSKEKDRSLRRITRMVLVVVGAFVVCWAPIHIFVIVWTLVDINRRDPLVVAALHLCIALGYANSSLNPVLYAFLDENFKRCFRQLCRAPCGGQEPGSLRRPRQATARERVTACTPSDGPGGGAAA
For experiment [2], the target named is Kappa-type opioid receptor (Cavia porcellus, UniProt P41144). The experiment can be described thus: Displacement of [3H]nor-BNI from KOR in Dunkin Hartley guinea pig membranes by liquid scintillation counting method. It is filed as cell membranes.
Chain of Kappa-type opioid receptor (P41144 whole entry): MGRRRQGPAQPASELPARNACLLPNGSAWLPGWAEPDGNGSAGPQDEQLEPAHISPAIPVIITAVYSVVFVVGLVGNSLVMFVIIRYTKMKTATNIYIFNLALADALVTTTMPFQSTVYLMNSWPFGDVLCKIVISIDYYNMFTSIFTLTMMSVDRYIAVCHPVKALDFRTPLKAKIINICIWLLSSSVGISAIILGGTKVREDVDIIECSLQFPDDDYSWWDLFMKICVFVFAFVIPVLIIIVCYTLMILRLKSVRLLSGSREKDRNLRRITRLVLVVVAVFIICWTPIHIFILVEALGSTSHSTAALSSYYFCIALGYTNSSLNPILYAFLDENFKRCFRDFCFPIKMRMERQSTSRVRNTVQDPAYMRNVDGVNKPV

Bridge positions count the residues as written; N and C are the ends. Square brackets hold non-standard residues; d marks the D form. Peptide text beside a SMILES is read from it. A value given as a limit tells only on which side of the number the result lay.

Chain of Mu-type opioid receptor (P33535 whole entry): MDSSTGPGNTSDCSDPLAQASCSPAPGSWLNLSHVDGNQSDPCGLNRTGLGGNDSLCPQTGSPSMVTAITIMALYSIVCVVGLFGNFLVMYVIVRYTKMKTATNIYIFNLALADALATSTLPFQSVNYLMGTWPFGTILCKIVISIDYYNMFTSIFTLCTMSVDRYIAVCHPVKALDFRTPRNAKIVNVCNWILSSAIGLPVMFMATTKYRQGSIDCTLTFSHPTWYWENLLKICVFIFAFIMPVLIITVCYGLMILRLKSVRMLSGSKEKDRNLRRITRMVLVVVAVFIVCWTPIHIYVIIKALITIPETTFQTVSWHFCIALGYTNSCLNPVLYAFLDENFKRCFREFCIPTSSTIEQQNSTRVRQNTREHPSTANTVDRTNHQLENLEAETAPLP

In general, IC50 refers to the concentration at which inhibition is half-maximal. Lower therefore signals greater potency in that assay. Turning to `NC(=O)[C@@H]1CC(=O)N[C@H]2CC[C@H](CC2)C[C@@H](NC(=O)[C@@H](N)Cc2ccc(O)cc2)C(=O)N[C@@H](Cc2ccccc2)C(=O)N[C@@H](Cc2ccccc2)C(=O)N1`, the IC50 at Mu-type opioid receptor is 3.2 nM; in experiment [1], above 1000 nM.

On to `NC(=O)[C@@H]1CC(=O)N[C@H]2CC[C@@H](CC2)C[C@@H](NC(=O)[C@@H](N)Cc2ccc(O)cc2)C(=O)N[C@@H](Cc2ccccc2)C(=O)N[C@@H](Cc2ccccc2)C(=O)N1`, for which the IC50 on Mu-type opioid receptor amounted to 2.08 nM; in experiment [1], 3.9 nM.

For the molecule `Cc1cc(O)cc(C)c1C[C@H](N)C(=O)N[C@@H]1C[C@H]2CC[C@H](CC2)NC(=O)C[C@@H](C(N)=O)NC(=O)[C@H](Cc2ccccc2)NC(=O)[C@H](Cc2ccccc2)NC1=O`, the IC50 was 0.04 nM on Mu-type opioid receptor, above 1000 nM in experiment [2] and above 1000 nM in experiment [1].

Take `Cc1cc(O)cc(C)c1C[C@H](N)C(=O)N[C@@H]1C[C@H]2CC[C@@H](CC2)NC(=O)C[C@@H](C(N)=O)NC(=O)[C@H](Cc2ccccc2)NC(=O)[C@H](Cc2ccccc2)NC1=O`: the values for the IC50 (at Mu-type opioid receptor; in experiment [2]; in experiment [1]) were 0.022 nM, 25 nM and 0.38 nM, respectively.

Take `NC(=O)[C@@H]1CC(=O)NCCCC[C@@H](NC(=O)[C@@H](N)Cc2ccc(O)cc2)C(=O)N[C@@H](Cc2ccccc2)C(=O)N[C@@H](Cc2ccccc2)C(=O)N1` (H-Y[dK]FFD-NH2; lactam 2-5): the IC50 in experiment [2] is 2.36 nM.

For the origin of these results see ChEMBL document CHEMBL3352451, “Cyclic side-chain-linked opioid analogs utilizing cis- and trans-4-aminocyclohexyl-D-alanine” (Bioorg Med Chem, 2014).
